Measurements published in patent publication US20250049778A1, “CRYSTALLINE FORM OF GLP-1 RECEPTOR AGONIST AND PREPARATION METHOD THEREFOR” (JIANGSU HENGRUI PHARMACEUTICALS CO., LTD., priority 2021, published 2025).

Tests used:
Assay type in all cases: physicochemical
[1] = Hygroscopicity of crystal forms by dynamic vapor sorption (DVS) at 25° C.; details: for Crystal form after DVS: two cycles
Procedure: Surface Measurement Systems advantage 2 is used for detection at 25° C. The humidity is 50%-95%-0%-95%-50% RH. The step is 10%. The criterion is that the mass change dM/dT for each step is less than 0.002%. TMAX is 360 min. Two cycles are carried out.
Surface Measurement Systems intrinsic DVS was used at 25° C. The observed humidity ranged from 0% to 95%. The step was 10%. The criterion was that the mass change dM/dT for each step was less than 0.002%. TMAX was 360 min. Two cycles were carried out.

[2] = Long-term/accelerated stability, sealed with aluminum foil bag
From the text: The results were as shown below.

[3] = Stability of crystal forms placed open under illumination, high temperature and high humidity, 30 days; details: for Physical and chemical stability (summary): illumination, 40° C. and 60° C., 75% RH and 92.5% RH
From the text: The sampling and investigation period was 30 days.

[4] = Illumination (4500 Lux), 5 days
[5] = Illumination (4500 Lux), 10 days
[6] = Illumination (4500 Lux), 30 days

Hygroscopic weight gain 0.0% RH to 80.0% RH [1] [%] | Crystal form after DVS [1] | Purity % ([2]; 25° C./60% RH, 1 month) [%] | Purity % ([2]; 25° C./60% RH, 3 months) [%] | Purity % ([2]; 40° C./75% RH, 1 month) [%] | Purity % ([2]; 40° C./75% RH, 3 months) [%] | Purity % ([2]; Initial condition) [%] | Purity % ([3]; 40° C., 5 days) [%] | Purity % ([3]; 40° C., 10 days) [%] | Purity % ([3]; 40° C., 30 days) [%] | Purity % ([3]; 60° C., 5 days) [%] | Purity % ([3]; 60° C., 10 days) [%] | Purity % ([3]; 60° C., 30 days) [%] | Purity % ([3]; 75% RH, 5 days) [%] | Purity % ([3]; 75% RH, 10 days) [%] | Purity % ([3]; 75% RH, 30 days) [%] | Purity % ([3]; 92.5% RH, 5 days) [%] | Purity % ([3]; 92.5% RH, 10 days) [%] | Purity % ([3]; 92.5% RH, 30 days) [%] | Purity % [3, 4] [%] | Compound | further results
0.65 | Unchanged | 99.5 | 99.5 | 99.5 | 99.5 | 99.5 | 98.8 | 98.8 | 98.8 | 98.8 | 98.7 | 98.8 | 98.7 | 98.7 | 98.7 | 98.8 | 98.7 | 98.8 | 98.7 | O=C(O)c1ccc2nc(CN3CCC(c4cccc5c4O[C@@H](c4ccc(Cl)cc4F)CO5)CC3)n(C[C@@H]3CCO3)c2c1 [Crystal form A of Compound A, 2-((4-((S)-3-(4-chloro-2-fluorophenyl)-2,3-dihydrobenzo[b][1,4]dioxan-5-yl)piperidin-1-yl)methyl)-1-(((S)-oxetan-2-yl)methyl)-1H-benzo[d]imidazole-6-carboxylic acid] | Purity % ([2]; 25° C./60% RH, 6 months): 99.5%; Crystal form ([2]; 25° C./60% RH, up to 6 months): Unchanged; Purity % ([2]; 40° C./75% RH, 6 months): 99.5%; Crystal form ([2]; 40° C./75% RH, up to 6 months): Unchanged; Physical and chemical stability (summary) ([2]; placed for 6 months under long-term accelerated conditions): good physical and chemical stability; Purity % [3, 5]: 98.7%; Purity % [3, 6]: 98.8%; Purity % ([3]; Initial condition, 0 days): 98.7%; Physical and chemical stability (summary) ([3]; 30 days): good physical and chemical stability
1.95 | Unchanged | 98.6 | 98.5 | 98.6 | 98.3 | 98.5 | 98.4 | 98.5 | 98.5 | 98.5 | 98.6 | 98.6 | 98.5 | 98.6 | 98.5 | 98.6 | 98.6 | 98.5 | 98.5 | O=C(O)c1ccc2nc(CN3CCC(c4cccc5c4O[C@@H](c4ccc(Cl)cc4F)CO5)CC3)n(C[C@@H]3CCO3)c2c1 [Crystal form D of Compound A, 2-((4-((S)-3-(4-chloro-2-fluorophenyl)-2,3-dihydrobenzo[b][1,4]dioxan-5-yl)piperidin-1-yl)methyl)-1-(((S)-oxetan-2-yl)methyl)-1H-benzo[d]imidazole-6-carboxylic acid] | Purity % ([2]; 25° C./60% RH, 2 months): 98.6%; Crystal form ([2]; 25° C./60% RH, up to 3 months): Unchanged; Purity % ([2]; 40° C./75% RH, 2 months): 98.4%; Crystal form ([2]; 40° C./75% RH, up to 3 months): Unchanged; Physical and chemical stability (summary) ([2]; placed for 3 months under long-term accelerated conditions): good physical and chemical stability; Purity % [3, 5]: 98.6%; Purity % [3, 6]: 98.6%; Purity % ([3]; Initial condition, 0 days): 98.5%; Physical and chemical stability (summary) ([3]; 30 days): good physical and chemical stability
